Assay results reported in patent US12599584B2, “Indoline derivatives, compositions comprising them and uses thereof” (Yissum Research Development Company of The Hebrew …, priority 2016, dated 2026).

Test system: Caspase 3
Assay: Caspase 3 activity in RAW macrophage 264.7 cells exposed to H2O2
Format: cell-based, mouse
Conditions: 1×10^−13M
Protocol: Oxidative stress can cause apoptosis, a form of cell suicide mediated by a cascade of proteolytic enzymes called caspases (cysteinyl aspartate-specific proteases). Caspase 3 is one of a number of effector caspases. Its activity was measured by means of a luminescent assay (Caspase-Glo 3/7 Assay Promega Ltd). […] The medium was aspirated 90 min later, 100 μL of DMEM was added to each well and the plates kept in an incubator overnight. Caspase-GloR Reagent (100 μL) was added to each well and the contents gently mixed using a plate shaker at 300-500 rpm for 30 sec. The plates were left at room temperature for 30 min and then luminescence of each sample was measured in a plate-reading luminometer (Cytation 3).

| SMILES | Reduction in caspase 3 activity compared with the other compounds |
| --- | --- |
| COC(=O)CCN1CCc2ccc(OCc3ccccc3)cc21.Cc1ccc(S(=O)(=O)O)cc1 [AN1279, Methyl 3-(6-(Benzyloxy)indolin-1-yl)propanoate p-Toluenesulfonate] | less reduction in caspase 3 activity than the other compounds |
| NCCCN1CCc2ccccc21 [AN1264, di-p-Toluenesulfonate] | less reduction in caspase 3 activity than the other compounds |
